According to patent publication US9399626B2, “2-thiopyrimidinones” (Pfizer Inc., priority 2011, dated 2016):
Counter-ions that a name gives are not always drawn.

Target: T1, MPO (purified from human polynuclear leukocytes) (Homo sapiens, UniProt P05164)
T1 construct: purified from human polynuclear leukocytes; purchased Calbiochem/EMD Biosciences; host or cells: human polynuclear leukocytes (natural source)
Test: MPO Amplex Red Activity Assay
Type: biochemical
Conditions: Table 1, 2 μM H2O2, pH 7.4
Summary of the method: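 Potency is given as kinact/KI: kobs values from 600 s progress curves, minus the uninhibited rate, are fit against inhibitor concentration. Reactions use 2 μM H2O2, 30 μM Amplex Red, pH 7.4 phosphate buffer with NaCl, DTPA and 2% DMSO, started with […] human MPO. Readout is resorufin fluorescence, catalase background subtracted.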

T1 sequence (P05164 279-745 limits assumed): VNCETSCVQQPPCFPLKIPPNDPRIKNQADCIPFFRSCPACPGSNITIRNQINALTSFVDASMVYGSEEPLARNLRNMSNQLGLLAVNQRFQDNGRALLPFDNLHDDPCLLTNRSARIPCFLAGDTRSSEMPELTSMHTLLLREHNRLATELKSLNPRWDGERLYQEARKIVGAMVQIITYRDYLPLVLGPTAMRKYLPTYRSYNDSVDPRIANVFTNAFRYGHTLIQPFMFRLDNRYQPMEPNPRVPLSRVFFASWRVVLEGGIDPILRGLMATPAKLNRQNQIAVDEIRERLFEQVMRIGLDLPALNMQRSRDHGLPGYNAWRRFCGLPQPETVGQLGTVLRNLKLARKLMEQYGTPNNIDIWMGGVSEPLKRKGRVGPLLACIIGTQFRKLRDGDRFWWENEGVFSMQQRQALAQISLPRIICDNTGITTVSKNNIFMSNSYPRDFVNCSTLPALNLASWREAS
T1 sequence (P05164 165-273 limits assumed): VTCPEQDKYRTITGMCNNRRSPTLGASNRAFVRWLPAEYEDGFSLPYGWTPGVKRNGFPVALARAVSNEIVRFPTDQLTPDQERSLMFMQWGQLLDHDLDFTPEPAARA

| MPO kinact/Ki | Structure (SMILES) |
| --- | --- |
| 6310 1/s per M | COc1nc2ccccc2cc1-c1cc(=O)[nH]c(=S)n1CCN [Example 97, 1-(2-aminoethyl)-6-(2-methoxyquinolin-3-yl)-2-thioxo-2,3-dihydropyrimidin-4(1H)-one trifluoroacetate] |
| 1870 1/s per M | NCCCn1c(-c2ccccc2-n2nccn2)cc(=O)[nH]c1=S [Example 98, 1-(3-aminopropyl)-2-thioxo-6-[2-(2H-1,2,3-triazol-2-yl)phenyl]-2,3-dihydropyrimidin-4(1H)-one hydrochloride] |
| 2920 1/s per M | NC(=O)Cn1c(-c2ccccc2-n2nccn2)cc(=O)[nH]c1=S [Example 99, 2-{4-oxo-2-thioxo-6-[2-(2H-1,2,3-triazol-2-yl)phenyl]-3,4-dihydropyrimidin-1(2H)-yl}acetamide] |
| 16100 1/s per M | COc1cc2ccccc2cc1-c1cc(=O)[nH]c(=S)n1CCO [Example 100, 1-(2-hydroxyethyl)-6-(3-methoxy-2-naphthyl)-2-thioxo-2,3-dihydropyrimidin-4(1H)-one] |
| 4140 1/s per M | COCCn1c(-c2ccccc2-n2nccn2)cc(=O)[nH]c1=S [Example 101, 1-(2-methoxyethyl)-2-thioxo-6-[2-(2H-1,2,3-triazol-2-yl)phenyl]-2,3-dihydropyrimidin-4(1H)-one] |
| 4200 1/s per M | CCOc1ccccc1-c1cc(=O)[nH]c(=S)n1CC1CCCO1 (centres unmarked) [Example 102, 6-(2-ethoxyphenyl)-1-(tetrahydrofuran-2-ylmethyl)-2-thioxo-2,3-dihydropyrimidin-4(1H)-one] |
| 41800 1/s per M | COc1ccccc1-c1cc(=O)[nH]c(=S)n1CCCN=C(N)N [Example 103, 2-{3-[6-(2-methoxyphenyl)-4-oxo-2-thioxo-3,4-dihydropyrimidin-1(2H)-yl]propyl} guanidine] |
| 1210 1/s per M | CCOc1ccccc1-c1cc(=O)[nH]c(=S)n1CCOC(C)C [Example 104, 6-(2-ethoxyphenyl)-1-(2-isopropoxyethyl)-2-thioxo-2,3-dihydropyrimidin-4(1H)-one] |
| 27300 1/s per M | COc1cc(OC)c(-c2cc(=O)[nH]c(=S)n2CCCN)cc1C [Example 105, 1-(3-aminopropyl)-6-(2,4-dimethoxy-5-methylphenyl)-2-thioxo-2,3-dihydropyrimidin-4(1H)-one hydrochloride] |
| 10500 1/s per M | COc1cc(-c2cc(=O)[nH]c(=S)n2CCCN)c(OC)cc1C [Example 106, 1-(3-aminopropyl)-6-(2,5-dimethoxy-4-methylphenyl)-2-thioxo-2,3-dihydropyrimidin-4(1H)-one hydrochloride] |
| 1280 1/s per M | COc1cc(OC)c(-c2cc(=O)[nH]c(=S)n2CC(N)=O)cc1F [Example 107, 2-[6-(5-fluoro-2,4-dimethoxyphenyl)-4-oxo-2-thioxo-3,4-dihydropyrimidin-1(2H)-yl]acetamide] |
| 5800 1/s per M | COc1cc(OC)c(-c2cc(=O)[nH]c(=S)n2CCCN)cc1F [Example 108, 1-(3-aminopropyl)-6-(5-fluoro-2,4-dimethoxyphenyl)-2-thioxo-2,3-dihydropyrimidin-4(1H)-one hydrochloride] |
| 914 1/s per M | COCCn1c(-c2cccc(S(C)(=O)=O)c2)cc(=O)[nH]c1=S [Example 109, 1-(2-methoxyethyl)-6-[3-(methylsulfonyl)phenyl]-2-thioxo-2,3-dihydropyrimidin-4(1H)-one] |
| 864 1/s per M | COCCn1c(-c2ccc(S(C)(=O)=O)cc2)cc(=O)[nH]c1=S [Example 110, 1-(2-methoxyethyl)-6-[4-(methylsulfonyl)phenyl]-2-thioxo-2,3-dihydropyrimidin-4(1H)-one] |
| 10300 1/s per M | COc1cc(OC)c(-c2cc(=O)[nH]c(=S)n2CCN)cc1Cl [Example 111, 1-(2-aminoethyl)-6-(5-chloro-2,4-dimethoxyphenyl)-2-thioxo-2,3-dihydropyrimidin-4(1H)-one hydrochloride] |
| 14900 1/s per M | COc1cc2ccccc2cc1-c1cc(=O)[nH]c(=S)n1CC(N)=O [Example 112, 2-[6-(3-methoxy-2-naphthyl)-4-oxo-2-thioxo-3,4-dihydropyrimidin-1(2H)-yl]acetamide] |
| 25900 1/s per M | COc1ccc(Cl)cc1-c1cc(=O)[nH]c(=S)n1C[C@@H](O)CN [Example 113, 1-[(2S)-3-amino-2-hydroxypropyl]-6-(5-chloro-2-methoxyphenyl)-2-thioxo-2,3-dihydropyrimidin-4(1H)-one trifluoroacetate] |
| 9770 1/s per M | COc1ccc(Cl)cc1-c1cc(=O)[nH]c(=S)n1C[C@H](O)CN [Example 114, 1-[(2R)-3-amino-2-hydroxypropyl]-6-(5-chloro-2-methoxyphenyl)-2-thioxo-2,3-dihydropyrimidin-4(1H)-one trifluoroacetate] |

| MPO kinact/Ki | Structure (SMILES) |
| --- | --- |
| 4380 1/s per M | COCCn1c(-c2ccc3ccccc3c2OC)cc(=O)[nH]c1=S [Example 115, 1-(2-methoxyethyl)-6-(1-methoxy-2-naphthyl)-2-thioxo-2,3-dihydropyrimidin-4(1H)-one] |
| 9920 1/s per M | COc1ccc(Cl)cc1-c1cc(=O)[nH]c(=S)n1C[C@@H](O)CO [Example 116, 6-(5-chloro-2-methoxyphenyl)-1-[(2R)-2,3-dihydroxypropyl]-2-thioxo-2,3-dihydropyrimidin-4(1H)-one] |
| 11400 1/s per M | COCCn1c(-c2cc3ccccc3cc2OC)cc(=O)[nH]c1=S [Example 117, 1-(2-methoxyethyl)-6-(3-methoxy-2-naphthyl)-2-thioxo-2,3-dihydropyrimidin-4(1H)-one] |
| 5500 1/s per M | COCCn1c(-c2ccccc2OC(F)(F)F)cc(=O)[nH]c1=S [Example 118, 1-(2-methoxyethyl)-2-thioxo-6-[2-(trifluoromethoxy)phenyl]-2,3-dihydropyrimidin-4(1H)-one] |
| 25600 1/s per M | COc1ccc(C)cc1-c1cc(=O)[nH]c(=S)n1CCCN=C(N)N [Example 119, 2-{3-[6-(2-methoxy-5-methylphenyl)-4-oxo-2-thioxo-3,4-dihydropyrimidin-1(2H)-yl]propyl} guanidine] |
| 9720 1/s per M | COc1ccc(C)cc1-c1cc(=O)[nH]c(=S)n1CCNC(=O)CN [Example 120, N-{2-[6-(2-methoxy-5-methylphenyl)-4-oxo-2-thioxo-3,4-dihydropyrimidin-1(2H)-yl]ethyl} glycinamide hydrochloride] |
| 15800 1/s per M | COc1ccc(OC)c(-c2cc(=O)[nH]c(=S)n2CCN=C(N)N)c1 [Example 121, 2-{2-[6-(2,5-dimethoxyphenyl)-4-oxo-2-thioxo-3,4-dihydropyrimidin-1(2H)-yl]ethyl}guanidine hydrochloride] |
| 9310 1/s per M | COc1ccc(Cl)cc1-c1cc(=O)[nH]c(=S)n1C[C@H]1CCCN1 [Example 122, 6-(5-chloro-2-methoxyphenyl)-1-[(2R)-pyrrolidin-2-ylmethyl]-2-thioxo-2,3-dihydropyrimidin-4(1H)-one hydrochloride] |
| 3780 1/s per M | COc1ccc(Cl)cc1-c1cc(=O)[nH]c(=S)n1C[C@@H]1CCCN1 [Example 123, 6-(5-chloro-2-methoxyphenyl)-1-[(2S)-pyrrolidin-2-ylmethyl]-2-thioxo-2,3-dihydropyrimidin-4(1H)-one hydrochloride] |
| 4610 1/s per M | COc1cc(OC)c(-c2cc(=O)[nH]c(=S)n2CC(N)=O)cc1OC [Example 124, 2-[4-oxo-2-thioxo-6-(2,4,5-trimethoxyphenyl)-3,4-dihydropyrimidin-1(2H)-yl]acetamide] |
| 10600 1/s per M | COc1cc(OC)c(-c2cc(=O)[nH]c(=S)n2CCCN)cc1OC [Example 125, 1-(3-aminopropyl)-2-thioxo-6-(2,4,5-trimethoxyphenyl)-2,3-dihydropyrimidin-4(1H)-one hydrochloride] |
| 18200 1/s per M | COc1ccc(F)cc1-c1cc(=O)[nH]c(=S)n1CCCN=C(N)N [Example 126, 2-{3-[6-(5-fluoro-2-methoxyphenyl)-4-oxo-2-thioxo-3,4-dihydropyrimidin-1(2H)-yl]propyl} guanidine] |
| 5810 1/s per M | COc1ccc(F)cc1-c1cc(=O)[nH]c(=S)n1CCNC(=O)CN [Example 127, N-{2-[6-(5-fluoro-2-methoxyphenyl)-4-oxo-2-thioxo-3,4-dihydropyrimidin-1(2H)-yl]ethyl} glycinamide hydrochloride] |
| 7680 1/s per M | COc1ccc(Cl)cc1-c1cc(=O)[nH]c(=S)n1CCN=C(N)N [Example 128, 2-{2-[6-(5-chloro-2-methoxyphenyl)-4-oxo-2-thioxo-3,4-dihydropyrimidin-1(2H)-yl]ethyl} guanidine hydrochloride] |
| 18700 1/s per M | COc1cc(OC)c(-c2cc(=O)[nH]c(=S)n2CCCN)cc1Cl [Example 129, 1-(3-aminopropyl)-6-(5-chloro-2,4-dimethoxyphenyl)-2-thioxo-2,3-dihydropyrimidin-4(1H)-one hydrochloride] |
| 4830 1/s per M | N=C(N)NCCn1c(-c2ccccc2-n2nccn2)cc(=O)[nH]c1=S [Example 130, 1-(2-{4-oxo-2-thioxo-6-[2-(2H-1,2,3-triazol-2-yl)phenyl]-3,4-dihydropyrimidin-1(2H)-yl}ethyl)guanidine hydrochloride] |
| 14500 1/s per M | COc1ccc(OC)c(-c2cc(=O)[nH]c(=S)n2CCCN=C(N)N)c1 [Example 131, 2-{3-[6-(2,5-dimethoxyphenyl)-4-oxo-2-thioxo-3,4-dihydropyrimidin-1(2H)-yl]propyl} guanidine trifluoroacetate] |
